# Reference: US20230365602A1, “COMPOUND FOR USE IN THE TREATMENT OF PROTOZOAL DISEASES AND PROCESS FOR PRODUCTION OF SAID COMPOUND” (QUADREL S.R.L., priority 2020, published 2023)
# “Also recorded” adds a separate entry of the source. Where two headings read alike, the source gives them in different places.
# Legend:
# [1] = test system: L. infantum (MHOM/MA/67/ITMAP-263) intracellular amastigotes; experiment: Anti-parasitic activity against L. infantum intracellular amastigotes (infection with axenic amastigotes luciferase positive); type: cell-based; conditions: Table 1
# hERG channel = hERG channel (Homo sapiens, UniProt Q12809); experiment: Early toxicity: hERG inhibition
# hERG channel, sequence (Q12809 whole entry): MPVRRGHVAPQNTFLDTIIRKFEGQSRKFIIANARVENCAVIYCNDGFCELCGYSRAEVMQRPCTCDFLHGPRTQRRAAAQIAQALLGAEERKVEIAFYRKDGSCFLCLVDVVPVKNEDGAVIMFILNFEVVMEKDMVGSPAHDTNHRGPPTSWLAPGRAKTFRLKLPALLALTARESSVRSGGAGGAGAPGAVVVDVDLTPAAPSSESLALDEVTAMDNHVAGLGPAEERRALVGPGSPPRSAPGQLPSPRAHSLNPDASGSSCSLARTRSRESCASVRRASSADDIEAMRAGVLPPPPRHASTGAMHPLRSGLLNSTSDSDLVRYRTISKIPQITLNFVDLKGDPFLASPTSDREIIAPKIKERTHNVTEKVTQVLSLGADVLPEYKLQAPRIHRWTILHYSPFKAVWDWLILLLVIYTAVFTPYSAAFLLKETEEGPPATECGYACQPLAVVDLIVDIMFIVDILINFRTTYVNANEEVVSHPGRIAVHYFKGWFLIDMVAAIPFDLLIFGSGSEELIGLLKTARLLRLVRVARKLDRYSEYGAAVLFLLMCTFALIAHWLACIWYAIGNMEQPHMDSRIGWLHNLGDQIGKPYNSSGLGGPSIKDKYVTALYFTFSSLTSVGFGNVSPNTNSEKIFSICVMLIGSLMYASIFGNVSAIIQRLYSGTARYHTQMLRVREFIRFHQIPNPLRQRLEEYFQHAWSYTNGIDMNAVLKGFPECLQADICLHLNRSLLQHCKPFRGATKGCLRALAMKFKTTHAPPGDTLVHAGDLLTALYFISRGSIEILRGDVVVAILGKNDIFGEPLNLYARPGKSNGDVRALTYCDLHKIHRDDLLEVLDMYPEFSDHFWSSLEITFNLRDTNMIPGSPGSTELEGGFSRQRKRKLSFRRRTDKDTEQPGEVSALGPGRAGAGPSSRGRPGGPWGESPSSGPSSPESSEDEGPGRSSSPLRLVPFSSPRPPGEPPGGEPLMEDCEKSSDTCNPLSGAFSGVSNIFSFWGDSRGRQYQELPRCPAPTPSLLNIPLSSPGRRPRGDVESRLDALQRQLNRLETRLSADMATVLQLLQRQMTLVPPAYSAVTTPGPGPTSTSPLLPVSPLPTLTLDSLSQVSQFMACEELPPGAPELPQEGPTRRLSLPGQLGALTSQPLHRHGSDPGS
# [2] = Snapshot pharmacokinetics in plasma after oral gavage; type: in vivo, mice; conditions: mouse, plasma, po, healthy BALB/c mice, 20 mg/kg gavage, Table 13
# Experimental: Pharmacology of 5-cyclopentadecylpentyl (2-(trimethylammonio)ethyl) phosphate (19) in mice.
# Blood samples were collected from the tail vein at 0, 0.5, 0.75, 1, 3, 24 and 72 hours into heparinized tubes. Moreover, biodistribution of the molecule, 72h after administration, was determined in several organs of the treated mice, namely brain, liver, spleen, kidney, heart and bone marrow. […] J Chromatogr B, 865: 55-62) by liquid chromatography mass spectrometry (LC-MS/MS).
# [3] = test system: L. infantum axenic amastigotes expressing luciferase; experiment: In vivo model of infection with L. infantum axenic amastigotes expressing luciferase; conditions: ten consecutive oral treatments with 10 mg/kg, 2 weeks after last treatment
# Experimental: FIG. 4 illustrates the in vivo activity of compounds 18 and 19 in a model of infection with L. infantum axenic amastigotes expressing luciferase (10 consecutive treatments with 10 mg/kg of each compound, evaluated by limiting dilution assay 2 weeks after the last treatment).
# In vivo activity of compounds 18 and 19 (ten consecutive oral treatments with 10 mg/kg of each compound, followed by a break of 2 weeks after last treatment), was studied in a model of infection with axenic amastigotes expressing luciferase, essentially as described in (Mendes Costa D. et al, J. Sci Rep. 2019 Dec. 12; 9(1):18989; Tavares J. et al., Methods Mol Biol. 2019; 1971:289-301). (FIG. 4).
# CYP1A2 = biological target: T1, CYP1A2 (Homo sapiens, UniProt P05177); experiment: Early toxicity: CYP1A2 inhibition; type: in vitro ADME; conditions: human, mean ± SD, Table 4a
# T1 sequence (P05177 1-516): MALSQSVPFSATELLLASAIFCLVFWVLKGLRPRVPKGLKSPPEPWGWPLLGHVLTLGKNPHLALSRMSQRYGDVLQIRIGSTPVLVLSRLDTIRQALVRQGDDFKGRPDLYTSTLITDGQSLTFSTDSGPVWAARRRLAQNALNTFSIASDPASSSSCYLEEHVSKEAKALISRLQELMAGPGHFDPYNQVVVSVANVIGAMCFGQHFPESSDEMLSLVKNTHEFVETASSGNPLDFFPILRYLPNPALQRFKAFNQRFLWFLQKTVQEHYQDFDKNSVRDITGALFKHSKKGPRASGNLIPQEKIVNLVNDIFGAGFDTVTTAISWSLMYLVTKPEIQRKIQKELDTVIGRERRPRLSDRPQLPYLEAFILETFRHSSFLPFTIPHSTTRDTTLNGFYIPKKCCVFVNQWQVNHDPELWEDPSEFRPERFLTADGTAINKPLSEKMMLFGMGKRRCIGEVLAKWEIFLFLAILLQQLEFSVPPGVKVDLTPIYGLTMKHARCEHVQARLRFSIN
# CYP2C19 = CYP2C19 (Homo sapiens, UniProt P33261); experiment: Early toxicity: CYP2C19 inhibition; type: in vitro ADME; conditions: Table 4a
# CYP2C19, sequence (P33261 whole entry): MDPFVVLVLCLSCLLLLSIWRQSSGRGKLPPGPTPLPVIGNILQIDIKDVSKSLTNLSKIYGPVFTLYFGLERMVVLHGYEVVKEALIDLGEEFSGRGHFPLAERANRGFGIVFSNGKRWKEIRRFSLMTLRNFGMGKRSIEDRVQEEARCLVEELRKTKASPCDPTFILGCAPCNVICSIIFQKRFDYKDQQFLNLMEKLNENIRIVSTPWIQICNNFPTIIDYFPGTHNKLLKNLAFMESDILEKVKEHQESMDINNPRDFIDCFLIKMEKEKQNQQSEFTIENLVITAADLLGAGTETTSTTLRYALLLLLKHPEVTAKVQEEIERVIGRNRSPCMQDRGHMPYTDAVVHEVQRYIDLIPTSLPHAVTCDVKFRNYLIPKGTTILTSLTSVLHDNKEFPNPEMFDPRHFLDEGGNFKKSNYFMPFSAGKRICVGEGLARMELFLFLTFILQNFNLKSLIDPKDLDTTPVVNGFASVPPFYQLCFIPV
# [4] = test system: T. b. brucei L427 WT Blood-Stream Form; experiment: Anti-parasitic activity against T. b. brucei blood-stream form (resazurin 72 h assay); type: cell-based; conditions: Table 2
# mitochondria = experiment: Early toxicity: mitochondrial toxicity; type: cell-based
# A549 = experiment: Early toxicity: A549 cell growth; type: cell-based; conditions: 10 μM; 100% = not cytotoxic, 0% = cytostatic, −100% = cytotoxic
# CYP2D6 = CYP2D6 (Homo sapiens, UniProt P10635); experiment: Early toxicity: CYP2D6 inhibition; type: in vitro ADME; conditions: Table 4a
# CYP2D6, sequence (P10635 whole entry): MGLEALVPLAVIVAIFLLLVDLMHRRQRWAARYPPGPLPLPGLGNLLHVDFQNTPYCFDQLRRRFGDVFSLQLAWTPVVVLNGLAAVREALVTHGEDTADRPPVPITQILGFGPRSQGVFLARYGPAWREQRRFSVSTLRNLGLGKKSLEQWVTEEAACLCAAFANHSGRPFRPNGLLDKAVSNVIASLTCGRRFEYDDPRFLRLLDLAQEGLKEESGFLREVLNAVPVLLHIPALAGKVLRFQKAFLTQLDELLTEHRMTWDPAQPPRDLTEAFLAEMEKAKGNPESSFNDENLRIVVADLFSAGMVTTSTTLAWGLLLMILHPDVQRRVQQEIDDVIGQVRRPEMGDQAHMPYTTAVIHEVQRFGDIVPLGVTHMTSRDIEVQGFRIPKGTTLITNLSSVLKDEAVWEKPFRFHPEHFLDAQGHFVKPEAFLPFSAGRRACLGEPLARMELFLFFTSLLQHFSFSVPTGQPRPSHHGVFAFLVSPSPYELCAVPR
# [5] = Toxicity MTT assay in PMA-differentiated THP-1 cells; type: cell-based, human; conditions: human, PMA-differentiated THP-1 cells (macrophages)
# Description: (§1) The in vitro antiparasitic activity against L. infantum (MHOM/MA/67/ITMAP-263) and the toxicity against THP-1 macrophages is presented in Table 1.
# [6] = test system: PMA-differentiated THP-1 cells; experiment: as above; type: cell-based, human; conditions: Table 2; read-out: Toxicity CC50 ± SD or NOAEL
# Description: as §1
# CYP2C9 = CYP2C9 (Homo sapiens, UniProt P11712); experiment: Early toxicity: CYP2C9 inhibition; type: in vitro ADME; conditions: human, mean ± SD, Table 4a
# CYP2C9, sequence (P11712 whole entry): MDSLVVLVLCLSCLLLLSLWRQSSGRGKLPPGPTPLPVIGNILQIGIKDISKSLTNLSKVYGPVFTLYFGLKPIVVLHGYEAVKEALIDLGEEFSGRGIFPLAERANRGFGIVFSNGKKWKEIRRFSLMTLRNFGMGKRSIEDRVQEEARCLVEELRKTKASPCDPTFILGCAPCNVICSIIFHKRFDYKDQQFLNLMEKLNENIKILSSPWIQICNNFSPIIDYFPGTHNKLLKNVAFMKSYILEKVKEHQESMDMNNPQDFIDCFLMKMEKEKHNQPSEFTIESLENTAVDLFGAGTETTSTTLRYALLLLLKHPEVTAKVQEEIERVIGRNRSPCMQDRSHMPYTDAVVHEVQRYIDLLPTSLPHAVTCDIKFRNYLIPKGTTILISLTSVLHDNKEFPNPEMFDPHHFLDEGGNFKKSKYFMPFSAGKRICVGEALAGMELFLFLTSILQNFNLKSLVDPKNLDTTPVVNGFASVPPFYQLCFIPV
# CYP3A4 = CYP3A4 (Homo sapiens, UniProt P08684); experiment: Early toxicity: CYP3A4 inhibition; type: in vitro ADME; conditions: Table 4a
# CYP3A4, sequence (P08684 whole entry): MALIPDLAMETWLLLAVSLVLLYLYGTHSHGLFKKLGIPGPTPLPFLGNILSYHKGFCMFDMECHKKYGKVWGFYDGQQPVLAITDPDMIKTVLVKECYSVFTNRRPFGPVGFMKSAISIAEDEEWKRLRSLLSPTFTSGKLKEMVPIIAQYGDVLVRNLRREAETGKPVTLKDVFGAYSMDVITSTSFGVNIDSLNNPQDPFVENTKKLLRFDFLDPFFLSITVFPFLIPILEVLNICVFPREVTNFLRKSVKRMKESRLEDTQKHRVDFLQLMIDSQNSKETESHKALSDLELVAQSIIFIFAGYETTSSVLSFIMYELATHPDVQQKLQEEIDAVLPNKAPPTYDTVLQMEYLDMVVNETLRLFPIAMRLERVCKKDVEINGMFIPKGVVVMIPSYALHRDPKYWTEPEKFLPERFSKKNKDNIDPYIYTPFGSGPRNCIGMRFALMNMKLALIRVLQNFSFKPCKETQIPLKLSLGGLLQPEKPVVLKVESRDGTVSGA
structure (smiles),measurement,setting,value
"C[N+](C)(C)CCOP(=O)([O-])OCCCCC1CCCCCCCCCCCCCC1 [Compound 18, 4-cyclopentadecylbutyl (2-(trimethylammonio)ethyl) phosphate]",inhibition at 10 µM,"[1]; Leishmania infantum, 10 μM, read-out: Single Dose Assay 10 μM Mean Inhibitory Activity (%) ± SD",97 ± 2%
same,IC50,"[1]; Leishmania infantum, read-out: Dose Response Curves IC50 ± SD",0.6 ± 0.3 µM
same,Selectivity Index CC50/IC50 or NOAEL/IC50,[1]; THP-1 toxicity / L. infantum IC50,>166
same,"Flag for Interference, hERG",hERG channel; Table 4b,(no)
same,inhibition at 10 µM,hERG channel; human,34.8 ± 14%
same,AUC(0-inf),[2]; read-out: AUC (0-∞),262 µg·h/mL
same,AUC(0-inf),[2]; read-out: AUC (0-∞) (μM h/mL),586 µM·h
same,Cmax,[2]; read-out: Cmax,20.3 µM
same,Cmax,[2]; read-out: Cmax (μg/mL),9.1 µg/mL
same,Tmax,[2]; read-out: tmax,5 h
same,half-life,[2]; read-out: t½ (converted),16.3 h
same,"parasitic burden in the spleen, liver or bone marrow",[3],not effective
same,inhibition at 10 µM,CYP1A2,14 ± 1.17%
same,CYP2C19 interaction / inhibition,CYP2C19; 10 μM,interact; also recorded: significant inhibition
same,inhibition at 10 µM,"CYP2C19; human, mean ± SD",33.3 ± 4.67%
same,activity against T. b. brucei blood-stream form,[4],unexpectedly high activity in the low micromolar range
same,inhibition at 10 µM,"[4]; Trypanosoma brucei, 10 μM, read-out: Single Dose Assay 10 μM Mean Inhibitory Activity (%) ± SD",91 ± 12%
same,IC50,"[4]; Trypanosoma brucei, resazurin 72 h, read-out: Dose Response Curves IC50 ± SD",7.44 ± 0.65 µM
same,Selectivity Index CC50/IC50 or NOAEL/IC50,[4]; toxicity / T. b. brucei IC50,>13
same,% mitochondrial toxicity,"mitochondria; 10 μM, 100% mitotoxic, 0% not mitotoxic",109.49 ± 9.62%
same,mitochondrial toxicity,mitochondria; Table 4b,exhibit mitochondrial toxicity
same,% cell growth A549,A549,132.80 ± 8.98%
same,CYP2D6 interaction / inhibition,CYP2D6; 10 μM,interact; also recorded: significant inhibition
same,inhibition at 10 µM,"CYP2D6; human, mean ± SD",64.5 ± 2.92%
same,CC50,"[5]; THP-1 macrophages, Table 1, read-out: Toxicity CC50 ± SD or NOAEL",> 100 µM
same,IC50,"[5]; Table 4b, read-out: Cytotoxicity THP-1 (IC50)",> 100 µM
same,CC50,[6],> 100 µM
same,inhibition at 10 µM,CYP2C9,5.66 ± 5.52%
same,CYP3A4 interaction,CYP3A4,interact
same,inhibition at 10 µM,"CYP3A4; human, 10 μM, mean ± SD, read-out: % inhibition CYP3A4",38.1 ± 2.67%
